Data reported in US5284853A, “Angiotensin II receptor blocking 2,3,6 substituted quinazolinones” (American Cyanamid Company, priority 1993, dated 1994).
“And” between values parts separate entries of the source, which are not always exact repeats. Equal entries are not always repeated. Each block holds one molecule with its values, some of them ahead of it.

Tests used:
Angiotensin II Receptor = molecular target: T1, Angiotensin II Receptor (Bos taurus, UniProt P25104); experiment: Receptor binding assay: competition of [^125 I](Sar^1,Ile^8)AngII binding to beef adrenal cortex microsomal membranes; conditions: 60 min, room temperature, pH 7.4
T1 construct: The brownish tissue forming the adrenal cortex is scraped off and finely minced with scissors before homogenization; tissue local slaughter house (Maxwell-Cohen); host or cells: beef adrenal cortex, microsomal membranes (100,000×g pellet)
T1 sequence (P25104 1-359): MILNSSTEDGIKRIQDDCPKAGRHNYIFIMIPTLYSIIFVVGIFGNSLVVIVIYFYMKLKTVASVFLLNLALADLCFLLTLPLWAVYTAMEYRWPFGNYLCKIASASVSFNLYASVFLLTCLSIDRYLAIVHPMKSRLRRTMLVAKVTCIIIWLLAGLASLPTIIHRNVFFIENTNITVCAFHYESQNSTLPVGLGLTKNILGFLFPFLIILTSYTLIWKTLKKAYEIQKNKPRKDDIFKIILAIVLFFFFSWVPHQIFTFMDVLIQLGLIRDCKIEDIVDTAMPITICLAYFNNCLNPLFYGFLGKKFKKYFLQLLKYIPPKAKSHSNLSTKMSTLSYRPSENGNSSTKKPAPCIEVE
From the text: Beef adrenals are obtained from a local slaughter house (Maxwell-Cohen). [^125 […]. 2200 Ci/mmole, is purchased from Dupont (KEN@, Boston, Mass.). All unlabeled AngII analogs, Dimethylsulfoxide (DMSO), nucleotides, bovine serum albumin (BBA) are purchased from Sigma Chemical Co., St. Louis, MO U.S.A. Approximately sixteen (16) to twenty (20) beef adrenal glands are processed as follows: fresh adrenal glands received on crushed ice are cleaned of fatty tissues and the tough membranes encapsulating the glands are removed and discarded. The brownish tissue forming the adrenal cortex is scraped off and finely minced with scissors before homogenization care is taken to avoid contamination with medullary tissue during dissection. […] Unless otherwise indicated, all subsequent operations are done at […]. […] The homogenate is centrifuged first at low speed (3,000×g) for 10 min. […] This P2 pellet is discarded and the liquid phase is carefully decanted off in clean centrifuge tubes and recentrifuged at high speed (100,000×g) for 60 min. The translucent final pellet is harvested and combined in a small volume (20-50.0 ml) of […] Tris.HCl buffer, pH 7.2. A 100 ul aliquot is withdrawn and the protein content of the preparation is determined by the Lowry's method (Lowry, O. H., Rosebrough, N. P., Parr, A. L. and Randall, R. J., Protein measurement with Folin phenol reagent. J. Biol. Chem., […], 265-275, 1951). The pelleted membrane is reconstituted in 50.0 mM Tris.HCl buffer containing 0.1 mM of phenylmethylsulfonyl fluoride (PMSF) to give approximately a protein concentration of 2.5 mg per ml of tissue suspension. […] In competition studies, experimental compounds are diluted in dimethylsulfoxide (DMSO) and added in 20 ul to wells before the introduction of tissue membranes. This concentration of DMSO is found to have no negative effects on the binding of [^125 I] ([…] to the membranes. Assays are performed in triplicate. The wells are left undisturbed for 60 min. at room temperature. Following incubation, all wells are harvested at once with a Brandel® Harvester especially designed for a 96 well plate (Brandel® Biomedical Research & Development Labs. Inc., Gaithersburg, MD, U.S.A.). The filter discs are washed with 10×1.0 ml of cold 0.9% NaCl to remove unbound ligand. Presoaking the filter sheet in 0.1% polyethyleneimine in normal saline (PEI/Saline) greatly reduces the radioactivity retained by the filter blanks. This method is routinely used. The filters are removed from the filter grid and counted in a Parkard® Cobra Gamma Counter for 1 min. (Packard Instrument Co., Downers Grove, Ill, U.S.A.). The binding data are analyzed by the non-linear interactive "LUNDON-11" program (LUNDON SOFTWARE Inc., Cleveland, OH U.S.A.).

[1] = system: Angiotensin II (AII) vasopressor response; experiment: AII Challenge: antagonism of the angiotensin II vasopressor response in conscious SHR; type: in vivo, Spontaneously hypertensive rats (Male okamoto-Aoki SHR); conditions: 15 mg/kg I.V.; for Average Change / Inhibition: n = 2; for Change / Control Before AII / Response After AII: per rat
From the text: […] Conscious Male okamoto-Aoki SHR, 16-20 weeks old, weighing approximately 330 g are purchased from Charles River Labs (Wilmington, MA). Conscious rats are restrained in a supine position with elastic tape. The area at the base of the tail is locally anesthetized by subcutaneous infiltration with 2% procaine. […] The cannula is secured, heparinized (1,000 I.U./ml), sealed and the wound is closed. The animals are placed in plastic restraining cages in an upright position. The cannula is attached to a Statham P23Db pressure transducer, and pulsatile blood pressure is recorded to 10-15 minutes with a Gould Brush recorder. (Chan et al., (Drug Development Res., 18:75-94, 1989). […] Co., St. […] […] […] […] […] A compound is considered active if at 30 mg/kg i.v. it antagonized at least 50% of the response.

[2] = AII 0.05 mcg/kg IV, 30 min post dose
[3] = AII 0.05 mcg/kg IV, 60 min post dose
[4] = AII 0.05 mcg/kg IV, 90 min post dose
[5] = AII 0.05 mcg/kg IV, 120 min post dose
[6] = AII 0.05 mcg/kg IV, 180 min post dose
[7] = AII 0.1 mcg/kg IV, 30 min post dose
[8] = AII 0.1 mcg/kg IV, 60 min post dose
[9] = AII 0.1 mcg/kg IV, 90 min post dose
[10] = AII 0.1 mcg/kg IV, 120 min post dose
[11] = AII 0.1 mcg/kg IV, 180 min post dose

IC50 (Angiotensin II Receptor): 600 nM
Compound: CCCCc1nc2ccc(C3CC(C(=O)O)=NO3)cc2c(=O)n1Cc1ccc(-c2ccccc2-c2nnn[nH]2)cc1 (stereo not drawn) [Example 28, 5-[2-butyl-3,4-dihydro-4-oxo-3-[[2'-(lH-tetrazol-5-yl)[1,1'-biphenyl]-4-yl]-methyl]-6-quinazolinyl]-4,5-dihydro-3-isoxazolecarboxylic acid]
Average Change [1, 2]: 10 mmhg
Inhibition [1, 2]: 75%
Change [1, 2]: 10 mmhg
Control Before AII [1, 2]: 185 mmhg and 167 mmhg
Response After AII [1, 2]: 195 mmhg and 177 mmhg
Average Change [1, 3]: 2.5 mmhg
Inhibition [1, 3]: 94%
Change [1, 3]: 5 mmhg and 0 mmhg
Control Before AII [1, 3]: 170 mmhg and 165 mmhg
Response After AII [1, 3]: 175 mmhg and 165 mmhg
Average Change [1, 4]: 10 mmhg
Inhibition [1, 4]: 75%
Change [1, 4]: 10 mmhg
Control Before AII [1, 4]: 185 mmhg
Response After AII [1, 4]: 195 mmhg
Average Change [1, 5]: 16 mmhg
Inhibition [1, 5]: 60%
Change [1, 5]: 22 mmhg and 10 mmhg
Control Before AII [1, 5]: 163 mmhg and 165 mmhg
Response After AII [1, 5]: 185 mmhg and 175 mmhg
Average Change [1, 6]: 15.5 mmhg
Inhibition [1, 6]: 61%
Change [1, 6]: 16 mmhg and 15 mmhg
Control Before AII [1, 6]: 170 mmhg
Response After AII [1, 6]: 186 mmhg and 185 mmhg
Average Change [1, 7]: 4.5 mmhg
Inhibition [1, 7]: 91%
Change [1, 7]: 9 mmhg and 0 mmhg
Control Before AII [1, 7]: 190 mmhg and 165 mmhg
Response After AII [1, 7]: 199 mmhg and 165 mmhg
Average Change [1, 8]: 14 mmhg
Inhibition [1, 8]: 73%
Change [1, 8]: 15 mmhg and 13 mmhg
Control Before AII [1, 8]: 175 mmhg and 157 mmhg
Response After AII [1, 8]: 190 mmhg and 170 mmhg
Average Change [1, 9]: 10 mmhg
Inhibition [1, 9]: 81%
Change [1, 9]: 10 mmhg
Control Before AII [1, 9]: 185 mmhg and 175 mmhg
Response After AII [1, 9]: 195 mmhg and 185 mmhg
Average Change [1, 10]: 20 mmhg
Inhibition [1, 10]: 62%
Change [1, 10]: 20 mmhg
Control Before AII [1, 10]: 180 mmhg and 165 mmhg
Response After AII [1, 10]: 200 mmhg and 185 mmhg
Average Change [1, 11]: 24.5 mmhg
Inhibition [1, 11]: 53%
Change [1, 11]: 24 mmhg and 25 mmhg
Control Before AII [1, 11]: 175 mmhg and 160 mmhg
Response After AII [1, 11]: 199 mmhg and 185 mmhg

IC50 (Angiotensin II Receptor): 200 nM
Compound: CCCCc1nc2ccc(C3(C)CC(C(=O)OCC)=NO3)cc2c(=O)n1Cc1ccc(-c2ccccc2-c2nnn[nH]2)cc1 (stereo not drawn) [Example 30]
Average Change [1, 2]: 10 mmhg
Inhibition [1, 2]: 78%
Change [1, 2]: 15 mmhg and 5 mmhg
Control Before AII [1, 2]: 175 mmhg and 215 mmhg
Response After AII [1, 2]: 190 mmhg and 220 mmhg
Average Change [1, 3]: 9 mmhg
Inhibition [1, 3]: 80%
Change [1, 3]: 0 mmhg and 18 mmhg
Control Before AII [1, 3]: 190 mmhg and 207 mmhg
Response After AII [1, 3]: 190 mmhg and 225 mmhg
Average Change [1, 4]: 20 mmhg
Inhibition [1, 4]: 57%
Change [1, 4]: 20 mmhg
Control Before AII [1, 4]: 170 mmhg and 210 mmhg
Response After AII [1, 4]: 190 mmhg and 230 mmhg
Average Change [1, 5]: 35 mmhg
Inhibition [1, 5]: 24%
Change [1, 5]: 40 mmhg and 30 mmhg
Control Before AII [1, 5]: 165 mmhg and 200 mmhg
Response After AII [1, 5]: 205 mmhg and 230 mmhg
Average Change [1, 6]: 5 mmhg
Inhibition [1, 6]: 89%
Change [1, 6]: 5 mmhg
Control Before AII [1, 6]: 200 mmhg and 240 mmhg
Response After AII [1, 6]: 205 mmhg and 245 mmhg
Average Change [1, 7]: 17 mmhg
Inhibition [1, 7]: 58%
Change [1, 7]: 14 mmhg and 20 mmhg
Control Before AII [1, 7]: 170 mmhg and 210 mmhg
Response After AII [1, 7]: 184 mmhg and 230 mmhg
Average Change [1, 8]: 20 mmhg
Inhibition [1, 8]: 50%
Change [1, 8]: 15 mmhg and 25 mmhg
Control Before AII [1, 8]: 185 mmhg and 200 mmhg
Response After AII [1, 8]: 200 mmhg and 225 mmhg
Average Change [1, 9]: 32.5 mmhg
Inhibition [1, 9]: 19%
Change [1, 9]: 35 mmhg and 30 mmhg
Control Before AII [1, 9]: 165 mmhg and 205 mmhg
Response After AII [1, 9]: 200 mmhg and 235 mmhg
Average Change [1, 10]: 29 mmhg
Inhibition [1, 10]: 28%
Change [1, 10]: 25 mmhg and 33 mmhg
Control Before AII [1, 10]: 175 mmhg and 200 mmhg
Response After AII [1, 10]: 200 mmhg and 233 mmhg
Average Change [1, 11]: 15 mmhg
Inhibition [1, 11]: 63%
Change [1, 11]: 25 mmhg and 5 mmhg
Control Before AII [1, 11]: 190 mmhg and 240 mmhg
Response After AII [1, 11]: 215 mmhg and 245 mmhg
